ChEMBL document CHEMBL5543143, “Potentiating Activity of GmhA Inhibitors on Gram-Negative Bacteria” (J Med Chem, 2024)
The source made the active and inactive calls. The calls are words filed in the database; no cut-off is given here.

Experiments:
HepG2 = test: Cytotoxicity against human HepG2 cells incubated overnight by Celltiter aqueous one solution cell proliferation assay; type: functional
Escherichia coli [1] = test: Potentiation of erythromycin induced antibacterial activity against Escherichia coli C7 (018:K1:H7) assessed as erythromycin MIC incubated overnight by two fold serial dilution assay; type: functional
Escherichia coli [2] = test: Antibacterial activity in Escherichia coli C7 (018:K1:H7) assessed as reduction in bacterial growth at 300 uM measured after 24 hrs by time-kill kinetics assay; type: functional, organism-based
Phosphoheptose isomerase = Phosphoheptose isomerase (Escherichia coli (strain K12), UniProt P63224); parameters: species or system K96243
Escherichia coli [3] = test: Potentiation of rifampicin induced antibacterial activity against Escherichia coli C7 (018:K1:H7) assessed as rifampicin MIC incubated overnight by two fold serial dilution assay; type: functional

Phosphoheptose isomerase, sequence (P63224 whole entry, looked up): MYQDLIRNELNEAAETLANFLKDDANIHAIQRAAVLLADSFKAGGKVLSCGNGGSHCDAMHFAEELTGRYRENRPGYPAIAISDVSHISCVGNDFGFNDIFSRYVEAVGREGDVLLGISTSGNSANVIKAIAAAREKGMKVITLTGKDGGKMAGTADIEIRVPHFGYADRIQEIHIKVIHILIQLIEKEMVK

## O=CN(O)C[C@H](O)[C@H](O)[C@H](O)CCP(=O)(O)O
HepG2
  CC50: > 1 mM

## O=CN(O)C[C@H](O)[C@H](O)[C@H](O)COP(=O)(O)O
Escherichia coli [1]
  MIC: 1 µg/mL
Escherichia coli [2]
  Activity: inactive
HepG2
  CC50: > 1 mM
Phosphoheptose isomerase
  IC50: 2 nM
Escherichia coli [3]
  MIC: 0.25 µg/mL
